Like-named read-outs stand apart in the source and are kept apart here. Marks after values point to notes of the source that are not given here.
Key:
[1] = system: HCMV AD169 strain; assay: Inhibitory effect on HCMV in vitro (MEC, therapeutic index); type: cell-based, human cytomegalovirus; details: HCMV AD169, 100 times TCD50, 10 days of culture
Protocol: Human embryonic lung fibroblast cell strain (purchased from Sino Best Biological Technology Co., Ltd.). The cells were cultured and subcultured according to the conventional method.
HCMV AD169 strain was purchased from American Type Culture Collection (ATCC).
Cells were inoculated in a 96-well plate, allowed to grow into monolayers, and inoculated with a virus challenge of 100 times TCD50. Starting from TD0, each drug was diluted stepwise according to 10-fold gradient to prepare 5 concentrations, with 4 wells set for each concentration. In addition, 4 wells of normal cell control and 4 wells of virus control were set.

[2] = system: Human embryonic lung fibroblast cell strain
[3] = system: carrageenan-induced paw swelling; assay: Carrageenan-induced paw swelling in rats; type: in vivo, Wistar rats; details: 100 mg/kg, sublingual intravenous injection
Protocol: Each group was administered by sublingual intravenous injection. Before the study, the normal volume of the right hind limb was measured by the capillary magnification method. To avoid errors, the measurement position should be fixed and performed by one person before and after administration. The average of the two measurements was taken as the normal volume of the right hind limb of the rats prior to administration. […] The inter-group t-test was performed by the difference percentage (swelling rate) of the plantar volume before and after the inflammation induction, and the differences among the groups were compared.

[4] = system: respiratory syncytial virus (RSV); assay: Effect of drugs on viral cytopathic effect, effective antiviral rate (ER%); type: cell-based; details: Vero cells, 100TCID50, drug at maximum non-toxic concentration, 72 h, MTT
[5] = system: Herpes simplex virus type 1 (HSV-1); assay: as above; type: cell-based; details: Vero cells, 100TCID50, drug at maximum non-toxic concentration, 72 h, MTT
[6] = system: Adenovirus (AdV); assay: as above; type: cell-based; details: Vero cells, 100TCID50, drug at maximum non-toxic concentration, 72 h, MTT
[7] = system: influenza virus; type: in vivo, Kunming mice; details: lung suspension, mice infected with influenza virus, 5 days
[8] = system: Parainfluenza virus; assay: Effect of drugs on viral cytopathic effect, effective antiviral rate (ER%); type: cell-based; details: Vero cells, 100TCID50, drug at maximum non-toxic concentration, 72 h, MTT
[9] = system: enterovirus 71 (EV71); assay: as above; type: cell-based; details: Vero cells, 100TCID50, drug at maximum non-toxic concentration, 72 h, MTT
[10] = system: parainfluenza virus; type: in vivo, Kunming mice; details: mice infected with parainfluenza virus
[11] = system: Influenza virus; assay: Effect of drugs on viral cytopathic effect, effective antiviral rate (ER%); type: cell-based
[12] = system: Coxsackievirus A16 (CoxA16); assay: as above; type: cell-based; details: Vero cells, 100TCID50, drug at maximum non-toxic concentration, 72 h, MTT
[13] = system: influenza virus; type: in vivo, Kunming mice
[14] = system: parainfluenza virus; type: in vivo, Kunming mice; details: […], 5 days
[15] = system: Vero cells; assay: Cytotoxicity test of drugs on Vero cells (MTT); details: 72 h
[16] = system: Coxsackievirus B3 (CVB3); assay: Effect of drugs on viral cytopathic effect, effective antiviral rate (ER%); type: cell-based; details: Vero cells, 100TCID50, drug at maximum non-toxic concentration, 72 h, MTT
[17] = system: fever induced by beer yeast; assay: Fever induced by beer yeast in rats; type: in vivo, Wistar rats; details: 100 mg/kg
[18] = system: epithelial cells of plantar sweat glands of rats; assay: Sweat secretion of rat paw (histomorphology observation method); type: in vivo, Wistar rats; details: 30 min after 35.0 mg/kg subcutaneous
Source text: After sweat glands activation in rats, besides the increase of sweat secretion, the morphology of the epithelial cells of the sweat glands changes accordingly. Under the optical microscope, the increase and enlargement of vacuoles in the epithelial cells of the sweat glands are observed. Under an electron microscope, the enlarged vacuoles appear to be due to swelling and rupture of mitochondria, enlargement of fusion and secretory vesicles in the epithelial cells of sweat glands. The secretory activity of sweat glands could be understood by observing the histomorphology of the epithelial cells of plantar sweat glands of rats. Three hundred Wistar rats, half male and half female, weighing 120-160 g. were taken in the study. […] Except for the pilocarpine solution given by subcutaneous injection, other groups were administered by gavage. One hour after the control group was given 0.5% carboxymethyl cellulose, 30 min after the positive drug group was given pilocarpine, and 1 h after the administration of forsythin, ginsenoside Rg3 and the panax ginseng-forsythia suspensa composition, the right hind limb was immediately cut off at the level of the ankle joint. […] Observations were made under an optical microscope for changes in the epithelial cells of the plantar sweat glands of rats in each group, mainly the incidence of vacuoles. The statistical processing was performed by X^2 test, and differences among the groups were compared. The above study was repeated for 3 times.

[19] = system: sweat secretion of rat paw; assay: Sweat secretion of rat paw (staining method); type: in vivo, Wistar rats; details: of 10 rats; 35.0 mg/kg subcutaneous
Source text: There are sweat glands on the plantar skin of rats, so the changes in sweat secretion can be observed by the purple reaction between the iodine-starch mixture and the sweat. Five hundred Wistar rats, half male and half female, weighing 120-150 g, were taken in the study. […] The rats were placed in a homemade rat-fixing bag to expose both hind limbs. The dirt on the right paw was gently scrubbed with a cotton swab dipped in absolute ethanol. Except for the pilocarpine solution, which was given by subcutaneous injection, other groups were administered by gavage. One hour after administration (30 min after administration in the pilocarpine group), the sweat secreted from the right paw of rats in each group was gently cleaned with a dry cotton swab before the study and during struggling. The right paw was coated with Wotan-[…] reagent A solution (dissolve 2 g of iodine in 100 mL of absolute ethanol) and then coated with Wotan-[…] reagent B solution (mix 50 g of soluble starch and 100 mL of Ricinus conununis oil well) after reagent A was fully absorbed. […] At the end of the test, a rank-sum test was used to analyze the differences among the groups.

[20] = 19.5 mg/kg/day by gavage, 5 days
[21] = mice infected with influenza virus, 19.5 mg/kg/day by gavage, 5 days

For COc1ccc(C2OCC3C(c4ccc(OC5OC(C(=O)O)C(O)C(O)C5O)c(O)c4)OCC23)cc1OC [9-Hydroxy-phillygenin glucuronide, 9-hydroxy phillygenin-8-O-β-D-glucuronide], the “Minimum effective concentration MEC” value [1] was 0.4 mg/L and the “Maximum non-toxic concentration TD0” value [2] was 40 mg/L.
For COc1cc(C2OCC3C(c4ccc5c(c4)OCO5)OCC23)ccc1OC1OC(C(=O)O)C(O)C(O)C1O [33, 34-methylenedioxy phillygenin-8-O-β-D-glucuronide], the “Minimum effective concentration MEC” value [1] was 0.4 mg/L and the “Maximum non-toxic concentration TD0” value [2] was 40 mg/L.
With COc1cc(C2OCC3C(c4ccc(OC5OC(C(=O)O)C(O)C(O)C5O)c(OC)c4)OCC23)ccc1O [33-Hydroxy-phillygenin glucuronide, 33-hydroxy phillygenin-8-O-β-D-glucuronide] the “Minimum effective concentration MEC” value [1] was 0.3 mg/L and the “Maximum non-toxic concentration TD0” value [2] was 30 mg/L.
With CC(=O)Oc1ccccc1C(=O)O [Aspinn] the “Swelling rate (%) 15 min” value ([3]; 15 min after inflammation induction) was 8.90±6.70^∗ %, the “Swelling rate (%) 30 min” value ([3]; 30 min after inflammation induction) was 15.6±12.2^∗ % and the “Swelling rate (%) 60 min” value ([3]; 60 min after inflammation induction) was 20.3±10.9^∗ %. For the same compound, the “Swelling rate (%) 120 min” value ([3]; 120 min after inflammation induction) was 21.6±12.1^∗∗ %, the “Swelling rate (%) 180 min” value ([3]; 180 min after inflammation induction) was 26.1±21.1^∗∗ % and the “Swelling rate (%) 240 min” value ([3]; 240 min after inflammation induction) was 26.1±16.3^∗∗ %. For the same compound, the “Swelling rate (%) 300 min” value ([3]; 300 min after inflammation induction) was 34.9±14.6^∗ % and the “Swelling rate (%) 360 min” value ([3]; 360 min after inflammation induction) was 31.9±12.2^∗ %.
For Nc1nc(O)c2ncn(COC(CO)CO)c2n1 [Ganciclovir (GCV), Ganciclovir, reference compound], the “Minimum effective concentration MEC” value [1] was 10 mg/L and the “Maximum non-toxic concentration TD0” value ([2]; human) was 10 mg/L.
For CCOC(=O)C1=C[C@@H](OC(CC)CC)[C@H](NC(C)=O)[C@@H](N)C1 [Oseltamivir Phosphate, reference compound], the “Effective Antiviral Rates (ER%) RSV” value [4] was 37.60%, the “Effective Antiviral Rates (ER%) HSV-I” value [5] was 66.56** % and the “Effective Antiviral Rates (ER%) ADV” value [6] was 10.31%. For the same compound, the “Hemagglutinin titer (InX)” value ([7]; 19.5 mg/kg/day by gavage) was 20.50±1.123, the “Inhibitory rate (%) of hemagglutination titer” value ([7]; 19.5 mg/kg/day by gavage) was 36.73% and the “Effective Antiviral Rates (ER%) Parainfluenza virus” value [8] was 94.52** %. For the same compound, the “Effective Antiviral Rates (ER%) EV71” value [9] was 51.86%, the “Lung index (x̅ ±S)” value [10, 20] was 1.243±0.054 and the “Lung index Inhibitory rate (%)” value [10, 20] was 21.85%. For the same compound, the “Lung index compared with the infection model group, in words” value ([10]; P < 0.05 or P < 0.01) was “decreased significantly”, the “Effective Antiviral Rates (ER%) Influenza virus” value ([11]; Vero cells, 100TCID50, drug at maximum non-toxic concentration, 72 h, MTT) was 81.76** % and the “Effective Antiviral Rates (ER%) CoxA16” value [12] was 2.95%. For the same compound, the “Lung index (x̅ ±S)” value [13, 21] was 1.178±0.066, the “Lung index Inhibitory rate (%)” value [13, 21] was 19.84% and the “Lung index compared with the infection model group, in words” value ([13]; mouse, in vivo) was “decreased significantly”. For the same compound, the “Hemagglutinin titer (InX)” value ([14]; 19.5 mg/kg/day by gavage) was 22.05±1.055, the “Inhibitory rate (%) of hemagglutination titer” value ([14]; 19.5 mg/kg/day by gavage) was 33.40% and the “Half toxic concentration (TC50)” value [15] was 832 µg/mL. For the same compound, the “Maximum non-toxic concentration (TC0)” value [15] was 0.28 g/L and the “Effective Antiviral Rates (ER%) CVB3” value [16] was 1.64%.
With CC(=O)Nc1ccc(O)cc1 [Paracetamol, reference compound] the “Body temperature change (%) (antipyretic percentage), time post-dose 1 h” value ([17]; 1 h post-dose) was -2.07±0.54^∗∗ %, the “Body temperature, time post-dose 1 h” value ([17]; 1 h post-dose) was 38.66±0.59 °C and the “Body temperature change (%) (antipyretic percentage), time post-dose 2 h” value ([17]; 2 h post-dose) was -3.27±0.77^∗∗∗ %. The “Body temperature, time post-dose 2 h” value ([17]; 2 h post-dose) was 38.19±0.59 °C, the “Body temperature change (%) (antipyretic percentage), time post-dose 3 h” value ([17]; 3 h post-dose) was -3.80±1.43^∗∗∗ % and the “Body temperature, time post-dose 3 h” value ([17]; 3 h post-dose) was 37.98±0.19 °C. The “Body temperature change (%) (antipyretic percentage), time post-dose 4 h” value ([17]; 4 h post-dose) was -4.15±1.59^∗∗∗ % and the “Body temperature, time post-dose 4 h” value ([17]; 4 h post-dose) was 37.84±0.32 °C.
CC[C@@H]1C(=O)OC[C@@H]1Cc1cncn1C [Pilocarpine, reference compound] was tested, and the “Number of vacuolar sweat glands (number)” value [18] was 57 number, the “Vacuolation rate (%)” value [18] was 27.40^∗∗∗ % and the “Number of animals with sweat spots of each grade at 1 min after application of solution B: grade +” value [19] was 1 animals. For the same compound, the “Number of animals with sweat spots of each grade at 1 min after application of solution B: grade ++” value [19] was 3 animals, the “Number of animals with sweat spots of each grade at 1 min after application of solution B: grade +++” value [19] was 1 animals and the “Number of animals with sweat spots of each grade at 1 min after application of solution B: grade +++ (fifth grade column)” value [19] was 5 animals. For the same compound, the “Number of animals with sweat spots of each grade at 1 min after application of solution B: grade -” value [19] was 0 animals, the “Number of animals with sweat spots of each grade at 5 min after application of solution B: grade +” value [19] was 1 animals and the “Number of animals with sweat spots of each grade at 5 min after application of solution B: grade ++” value [19] was 2 animals. For the same compound, the “Number of animals with sweat spots of each grade at 5 min after application of solution B: grade +++” value [19] was 1 animals, the “Number of animals with sweat spots of each grade at 5 min after application of solution B: grade +++ (fifth grade column)” value [19] was 6 animals and the “Number of animals with sweat spots of each grade at 5 min after application of solution B: grade -” value [19] was 0 animals.
NC(=O)c1ncn([C@@H]2O[C@H](CO)[C@@H](O)[C@H]2O)n1 [Ribavirin, reference compound] was tested, and the “Effective Antiviral Rates (ER%) RSV” value [4] was 50.08* %, the “Effective Antiviral Rates (ER%) HSV-I” value [5] was 62.92** % and the “Effective Antiviral Rates (ER%) ADV” value [6] was 0.43%. The “Hemagglutinin titer (InX)” value ([7]; 58.5 mg/kg/day by gavage) was 21.91±1.050, the “Inhibitory rate (%) of hemagglutination titer” value ([7]; 58.5 mg/kg/day by gavage) was 32.39% and the “Effective Antiviral Rates (ER%) Parainfluenza virus” value [8] was 91.56** %. The “Effective Antiviral Rates (ER%) EV71” value [9] was 4.25%, the “Effective Antiviral Rates (ER%) Influenza virus” value [11] was 57.49** % and the “Effective Antiviral Rates (ER%) CoxA16” value [12] was 0.70%. The “Hemagglutinin titer (InX)” value ([14]; 58.5 mg/kg/day by gavage) was 23.22±1.091, the “Inhibitory rate (%) of hemagglutination titer” value ([14]; 58.5 mg/kg/day by gavage) was 29.86% and the “Effective Antiviral Rates (ER%) CVB3” value [16] was 13.44%.

Source: patent US20230338454A1, “FORSYTHIA SUSPENSA COMPONENT AND OPTIONAL PANAX GINSENG COMPONENT AND THE APPLICATION” (priority 2020, published 2023)
